Columns and labels:
Format in all cases: binding
[1] = molecular target: T1, rD2BPL3 (Bryopsis plumosa, UniProt A0A1J0CRG2); assay: glycan microarray, biotinylated lectin, Cy3-streptavidin; conditions: 50 μg/mL lectin; glycan immobilised through spacer
T1 construct: artificial tandem repeat of two identical BPL3 domains in one chain, 4-residue linker
T1 sequence (A0A1J0CRG2 29-134): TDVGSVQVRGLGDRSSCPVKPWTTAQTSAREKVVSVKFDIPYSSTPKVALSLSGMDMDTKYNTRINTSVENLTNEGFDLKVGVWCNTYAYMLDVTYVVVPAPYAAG
Text: glycan microarray, biotinylated lectin, Cy3-streptavidin on rD2BPL3

[2] = molecular target: T2, native BPL3 (Bryopsis plumosa, UniProt A0A1J0CRG2); assay: as above; conditions: 50 μg/mL lectin; glycan immobilised through spacer
T2 construct: native purification from alga by GalNAc-agarose, eluted with GlcNAc; not pure, BPL4 band seen; may consist of 2-6 domains
T2 sequence (A0A1J0CRG2 29-134): T1 sequence (A0A1J0CRG2 29-134)
Text: glycan microarray, biotinylated lectin, Cy3-streptavidin on native BPL3

[3] = molecular target: T1, rD2BPL3; assay: inhibition of hemagglutination, human erythrocytes; conditions: PBS, 4 HU lectin, human type B erythrocytes, two-fold dilutions
Text: inhibition of hemagglutination, human erythrocytes on rD2BPL3

[4] = molecular target: T2, native BPL3; assay: inhibition of hemagglutination, human erythrocytes; conditions: PBS, 4 HU lectin, human type B erythrocytes, two-fold dilutions
Text: inhibition of hemagglutination, human erythrocytes on native BPL3

Row | Compound | RFU (Normalized) / rD2BPL3 [1] [RFU] | RFU (Normalized) / Native BPL3 [2] [RFU] | Minimum Inhibitory Concentration / rD2BPL3 [3] [mM] | Minimum Inhibitory Concentration / Native BPL3 [4] [mM]
1 | D-Cellose-β-Sp1 [compound 87] | 1119 | – | – | –
2 | α-Man-Sp [compound 3] | 1322 | 1025 | – | –
3 | GlcNAc-β-1,2-Man-α-Sp [compound 45] | 1290 | – | – | –
4 | CC(=O)N[C@H]1C(O)O[C@H](CO)[C@H](O)[C@@H]1O (stereo partly drawn) [N-acetyl-D-galactosamine] | – | – | 31.25 | 62.5
5 | α-Fuc-Sp [compound 4] | 1313 | – | – | –
6 | CC(=O)N[C@H]1C(O)O[C@H](CO)[C@@H](O)[C@@H]1O (stereo partly drawn) [N-acetyl-D-glucosamine] | – | – | 62.5 | 125

Source: publication PMC5793061, “Functional Expression and Characterization of the Recombinant N-Acetyl-Glucosamine/N-Acetyl-Galactosamine-Specific Marine Algal Lectin BPL3” (Marine Drugs, 2018)
